This is an account of results in publication PMC6222871, “Suppression of Hepatitis C Virus Genome Replication and Particle Production by a Novel Diacylglycerol Acyltransferases Inhibitor” (Molecules : A Journal of Synthetic Chemistry and Natural …, 2018).

Where two headings read alike, the source gives them in different places.

The test system of data set [1] is HCV genotype 2a (Huh7.5-J6/JFH1). Description: HCV particle production: infectivity of supernatant on naive Huh7.5 cells by real-time RT-PCR. Conditions: 10 μM. The data set is classed as cell-based, hepatitis C virus. A general note: Quantitative PCR measures a nucleic acid by following its amplification.
Method: A922500, a commercially available DGAT-1-specific inhibitor was used as a positive control [10]. […] Therefore, we decided to examine effects of these twelve DGAT inhibitors on HCV particle production as well as RNA genome replication in parallel. For this purpose, we transfected Huh7.5 cells with in vitro-transcribed genotype 2a HCV RNAs (Huh7.5-J6/JFH1) [16] and treated them with each DGAT inhibitor for 6 and 72 h at 10 μM. HCV genome replication as well as host GAPDH RNA levels was quantitated by a real-time RT-PCR analysis. For assessment of HCV particle production, we harvested and filtered the supernatant from Huh7.5-J6/JFH1 cells treated with DGAT inhibitors and incubated the supernatant with naïve huh7.5 cells for 72 h. Then, infectivity was measured by a real-time RT-PCR analysis.
Huh7.5-J6/JFH-1 cells were seeded into 6-well plates at a density of 3 × 10^5 cells per well with DMEM containing 10% FBS. […] Total RNAs were extracted from treated cells and virus-containing media were harvested at each time point. Naïve Huh7.5 cells were infected with these virus-containing media after concentration with centricons.
Data set [2] is described as follows: MTT-based cell viability assay (EZ-CYTOX). As to conditions: human. The protocol: (§1) To order to study impacts of DGAT inhibitors on HCV genome replication independently of the particle production, we decided to examine effects of these twelve DGAT inhibitors on the levels of viral RNA genome and cell viability in parallel. […] Then, we treated them with an increasing concentration of each DGAT inhibitor. Then, luciferase and MTT-based cell viability assays were performed to determine EC50 and CC50 (cytotoxic concentration required to kill 50% of treated cells) values, respectively.
(§2) Cell viability was measured with EZ-CYTOX (10% tetrazolium salt; Dogen, Gyeonggi-do, Korea) as described previously. Anti-HCV replication analysis using a luciferase assay was conducted as previously described.

The subject of the next data set is recombinant DGAT-1. Further details: method as in PMID 23242135. As to conditions: recombinant DGAT-1, [14C] oleoyl-CoA as acyl-donor; cited from earlier work.
Data set [3] concerns DGATs (rat liver microsome). Details: method as in PMID 23141914, PMID 23242135. As to conditions: cited from earlier work.
The test system of another data set is recombinant DGAT-2. Details: method as in PMID 23242135. As to conditions: cited from earlier work.
For data set [4], the system named is luciferase-linked genotype 2a HCV RNAs. Description: microbe, parasite or virus in culture. As to conditions: read-out: EC50 (HCV replication). The data set is classed as cell-based, hepatitis C virus. The protocol: as §1, §2
In a further data set the test system is HepG2 cells. Details: method as in PMID 23242135. Conditions: [14C] glycerol as substrate; cited from earlier work.
Data set [5] has as its system HCV NS3 (Huh7.5-J6/JFH1, genotype 2a). In words: western blot of HCV NS3 protein in Huh7.5-J6/JFH1 cells. As to conditions: positive control. The protocol: Due to the tight coupling of viral genome replication to its protein expression, inhibition of viral RNA genome replication leads to a subsequent reduction of viral protein expression.
(A) Dose-dependent western blot analysis of Huh7.5-J6/JFH1 cells treated with increasing concentrations of 10j for 72 h by measuring protein expression levels of HCV NS3 relative to the β-actin. Daclatasvir, an NS5A inhibitor was used as a positive control. (B) Time-dependent western blot analysis of J6/JFH1 RNA-transfected Huh7.5 cells treated with 8 μM of 10j for increasing periods of time analyzed by measuring protein expression levels of HCV NS3 relative to the β-actin. (C,D) Same experiments were performed as in (A,B) to study effects of 10j on the expression levels of the NS5A protein of Huh7.5-Bart79I cells in a dose- as well as time-dependent manners.
Western blot analysis of Huh7.5-J6/JFH1 or Bart79I cells treated with 10j was conducted as previously described. Relative amounts of HNF4α proteins were quantified by using an HNF4α mouse monoclonal antibody (M04), clone 4E2 (Abnova) with the dilution of 1:1000.

[6] abbreviates: Hepatitis C virus, Huh7.5, luciferase-linked genotype 2a HCV RNA in Huh7.5 cells.

For `CC(C)(C)OC(=O)n1cc(/C=C/C(=O)Nc2cccc(C(=O)N3CCCC3)c2)c2ccccc21` [5c], the “effect on HCV particle production” value in data set [1] (72 h (Figure 1D)) was “suppress the viral particle production”. Moreover, in data set [2], the CC50 is over 10 µM. Moreover, the figures for the IC50 (in the data set on recombinant DGAT-1; in data set [3]; with recombinant DGAT-2) were 89.1 µM, 13.2 µM and 6.8 µM, respectively. For the same compound, in data set [4] (setting [6]), the EC50 is over 10 µM.

On to `CC(C)CCn1cc(/C=C/C(=O)N(NC(=O)c2ccc(F)cc2)C(C)C)c2ccccc21` [8i], for which the “effect on HCV particle production” value in data set [1] (72 h (Figure 1D)) was “suppress the viral particle production”. In data set [2], the CC50 is over 10 µM. In addition, in the data set with HepG2 cells, the “TG % (10 μM in HepG2), relative [14C] triglyceride percentage” value is on record as 94.8%. In addition, the IC50 in the data set with recombinant DGAT-1 was 2.1 µM; in the data set on recombinant DGAT-2 it was over 10 µM. Besides, the EC50 in data set [4] (setting [6]) stood at 5.1 µM.

Consider `O=C(NCc1ccccc1)c1ccc2nc(COc3ccc(C45CC6CC(CC(C6)C4)C5)cc3)[nH]c2c1` [10h], for which the CC50 in data set [2] is over 10 µM. For the same compound, the IC50 in data set [3] is over 50 µM. The EC50 in data set [4] (setting [6]) is under 10 µM; in data set [4] (luciferase-linked genotype 2a HCV RNA in Huh7.5 cells), 7.7 µM.

Take `CC(C)CCn1cc(/C=C/C(=O)N(NC(=O)c2cccc(F)c2)C(C)C)c2ccccc21` [8h]: the “effect on HCV particle production” value in data set [1] (72 h (Figure 1D)) was “suppress the viral particle production”. The compound further returned a CC50 in data set [2] of over 10 µM. Also, the “TG % (10 μM in HepG2), relative [14C] triglyceride percentage” value with HepG2 cells is 71.2%. The concentration for half-maximal inhibition (IC50) is 20.4 µM in the data set on recombinant DGAT-1 and over 10 µM with recombinant DGAT-2. The EC50 in data set [4] (setting [6]) is 6.7 µM.

Regarding `CC(C)NC(=O)c1cccc(NC(=O)/C=C/c2cn(C(=O)OC(C)(C)C)c3ccccc23)c1` [5a], the “effect on HCV particle production” value in data set [1] (6 h (Figure 1B)) is “able to block HCV particle production”; in data set [1] (72 h (Figure 1D)), “suppress the viral particle production”. For the same compound, half-maximal cytotoxicity in data set [2] (CC50) was put at 3.7 µM. The IC50 with recombinant DGAT-1 was over 100 µM; in data set [3], 8.8 µM; with recombinant DGAT-2, 6.9 µM. Further, the EC50 in data set [4] (setting [6]) is 1.9 µM.

In turn, `O=C(NCc1ccccn1)c1ccc2nc(COc3ccc(C45CC6CC(CC(C6)C4)C5)cc3)[nH]c2c1` [10i] had a CC50 in data set [2] of 3.9 µM. The IC50 in data set [3] is 20 µM.

For `CC(C)(C)OC(=O)n1cc(/C=C/C(=O)Nc2cccc(C(=O)NCc3ccco3)c2)c2ccccc21` [5h], the “effect on HCV particle production” value in data set [1] (6 h (Figure 1B)) was “able to block HCV particle production”; in data set [1] (72 h (Figure 1D)) it was “suppress the viral particle production”. In addition, in data set [2], half-maximal cytotoxicity (CC50) was put at 5.1 µM. Besides, in the data set with HepG2 cells, the “TG % (10 μM in HepG2), relative [14C] triglyceride percentage” value is 33.2%. For the same compound, the IC50 in the data set on recombinant DGAT-1 is over 100 µM; in data set [3], 2.5 µM; in the data set with recombinant DGAT-2 it was 6.9 µM. Further, the EC50 in data set [4] (setting [6]) came out at 2.1 µM.

In the case of `COC(=O)N[C@H](C(=O)N1CCC[C@H]1c1nc(-c2ccc(-c3ccc(-c4c[nH]c([C@@H]5CCCN5C(=O)[C@@H](NC(=O)OC)C(C)C)n4)cc3)cc2)c[nH]1)C(C)C` [Daclatasvir, reference compound], the “expression of viral proteins” value in data set [5] was “able to inhibit expression of viral proteins”.

With `Cc1ccc(CNC(=O)c2cccc(NC(=O)/C=C/c3cn(C(=O)OC(C)(C)C)c4ccccc34)c2)o1` [5j], the “effect on HCV particle production” value in data set [1] (72 h (Figure 1D)) is “suppress the viral particle production”. The midpoint of cytotoxicity in data set [2], the CC50, lay at 3.4 µM. The IC50 is over 100 µM in the data set on recombinant DGAT-1, 9.4 µM in data set [3] and 7.4 µM in the data set with recombinant DGAT-2. Further, in data set [4] (setting [6]), the EC50 came to 1.1 µM.

Turning to `O=C(Nc1ccccc1)c1ccc2nc(COc3ccc(C45CC6CC(CC(C6)C4)C5)cc3)[nH]c2c1` [10f], the CC50 in data set [2] was over 10 µM. In data set [3], the IC50 was over 50 µM. Further, the EC50 in data set [4] (setting [6]) is over 10 µM.

`O=C(c1ccc2nc(COc3ccc(C45CC6CC(CC(C6)C4)C5)cc3)[nH]c2c1)N1CCCCC1` [10e] had a CC50 in data set [2] of over 10 µM. The half-inhibitory concentration (IC50) in data set [3] was 27.5 µM. Besides, the EC50 in data set [4] (setting [6]) is over 10 µM.

Regarding `CC(C)=CCn1cc(/C=C/C(=O)N(NC(=O)c2cccc(F)c2)C(C)C)c2ccccc21` [8u], the “effect on HCV particle production” value in data set [1] (72 h (Figure 1D)) is “suppress the viral particle production”. The compound further displayed a CC50 in data set [2] of over 10 µM. In the data set on HepG2 cells, the “TG % (10 μM in HepG2), relative [14C] triglyceride percentage” value is 55.7%. Also, the IC50 with recombinant DGAT-1 was 1.5 µM; in the data set with recombinant DGAT-2, over 10 µM. For the same compound, in data set [4] (setting [6]), the EC50 is over 10 µM.

In general, CC50 refers to the concentration that lowers cell viability or growth by half. A lower CC50 goes with harm at low concentration. What is called IC50 is the concentration needed to halve the response being measured. Usually EC50 stands for the concentration that produces a half-maximal response.
